These results are taken from patent US20220073910A1, “A Cross-Linking Approach to Map Small Molecule-RNA Binding Sites in Cells” (priority 2019, published 2022).

Starred links: 1 amine or outer side, 2 acyl side, 3 side chain; linkers in the order of their positions; H or OH if unused. Non-standard residues stand in square brackets, D forms with d. Residues, ends and D or L forms follow the SMILES beside them. *: point of attachment. Biotinyl(3aR,4R,6aS) = O=C1N[C@@H]2[C@@H](CS[C@@H]2CCCCC(=O)*)N1; N(2-Aminoethyl)Gly = O=C(CN(CCN[*:3])[*:1])[*:2]; Chlorambucil = O=C(CCCc1ccc(N(CCCl)CCCl)cc1)*; Gly(N-propargyl) = C#CCNCC(=O)O; NPrGly = CCCNCC(=O)O

The subject of assay [1] is pri-miR-96 (Drosha processing). Briefly: RT-qPCR of mature miR-96 and pri-miR-96 levels in MDA-MB-231 TNBC cells. The conditions noted are these: MDA-MB-231 cells, 50 nM. Type of assay: cell-based. On the procedure: (§1) A—Effects of compounds 1 and 2 (50 nM) on mature miR-96 and pri-miR-96 levels. B—Effects of compounds 1 and 2 (50 nM) on FOXO1 protein expression. C— Profiling of miRNAs predicted to target FOXO1 mRNA by TargetScan in compound 2-treated MDA-MB-231 cells. D—Volcano plot profiling the effect of compound 2 on all miRNAs that are expressed in MDA-MB-231 cells (blue circles are miRNAs predicted to target FOXO1 mRNA by TargetScan). E—Effects of compounds 1, 2, and 3 on Caspase 3/7 activity, indicative of apoptosis, in MDA-MB-231 TNBC cells. F—Effects of compounds 1, 2, and 3 on Caspase 3/7 activity, indicative of apoptosis, in MCF-10A normal breast epithelial cells.
(In qPCR the cycle at which signal appears reflects the starting amount.)

In a further assay the test system is FOXO1 protein. The experiment in a line: FOXO1 protein expression in MDA-MB-231 cells. It counts as cell-based. Particulars: 50 nM. How it is done: as §1
(§2) Since miR-96 suppresses apoptosis in cancer cells by repressing the translation of Forkhead box 01 (FOXO1) transcription factor,^15 the effects of 1, 2, and 3 on FOXO1 protein levels were measured in MDA-MB-231 cells. […] To validate that the increase in FOXO1 levels was mediated by inhibition of miR-96, we studied the effects of 1 and 2 on all 15 miRNAs predicted to target the FOXO1 3′ untranslated region (UTR) by TargetScan (FIG. 3C). […] To further probe 2's selectivity for pri-miR-96, we performed an unbiased profiling experiment on 373 miRNAs expressed in MDA-MB-231 TNBC cells (based on Qiagen miRNA Human miRbase profiler HC).

The subject of assay [2] is miRNAs predicted to target FOXO1 mRNA. Briefly: Profiling of 15 miRNAs predicted by TargetScan to target FOXO1 3' UTR. Type of assay: cell-based. Particulars: MDA-MB-231 cells. How it is done:
as §1, §2

Assay [3] has as its system 373 miRNAs expressed in MDA-MB-231 TNBC cells. The experiment in a line: Unbiased profiling of 373 miRNAs expressed in MDA-MB-231 TNBC cells. The conditions noted are these: Qiagen miRNA Human miRbase profiler HC. Type of assay: cell-based. How it is done:
as §1, §2

The test system of another assay is MDA-MB-231 TNBC cells. Briefly: Caspase 3/7 activity (apoptosis) in MDA-MB-231 TNBC cells. Type of assay: cell-based. The conditions noted are these: MDA-MB-231 cells. On the procedure: as §1
(§3) We next studied the ability of 1 and 2 to trigger apoptosis, i.e., reverse phenotype, in MDA-MB-231 by measuring Caspase activity. […] Compound 3 had no effect on Caspase activity, as expected. […] Thus, the covalent compounds show relative selectivity for cancerous over healthy breast cells.

For the next assay, the system named is MCF-10A cells. Briefly: Caspase 3/7 activity (apoptosis) in MCF-10A normal breast epithelial cells. Type of assay: cell-based. Particulars: healthy breast epithelial MCF-10A cells. On the procedure: as §1, §3
Assay [4] deals with pri-miR-96. The experiment in a line: Chem-CLIP-Map-Seq binding site mapping within pri-miR-96 in MDA-MB-231 TNBC cells. The conditions noted are these: MDA-MB-231 cells, 1000 nM. It counts as cell-based. The source says: A—Scheme of amplification approach to identify small molecule binding site in pri-miR-96. B— In cellulis mapping of the binding site for compound 2 within pri-miR-96 in MDA-MB-231 TNBC cells. Percentages indicate the number of sequences observed terminating at the respective nucleotide adjacent to the percentage.
Given the enrichment of pri-miR-96 in the pulled down fraction and 2's pro-apoptotic properties, we mapped 2's binding site within pri-miR-96 in cells. We defined 2's cellular binding site within pri-miR-96. […] After reverse transcription, ssDNA adaptors were ligated to the cDNA, followed by which was cloned into NEB's pminiT 2.0 vector and sequenced. Mirroring the predicted and validated (via nuclease mapping^14) binding site, 2's binding site was localized to nucleotides that are proximal to pri-miR-96's Drosha site (FIG. 4B). In particular, the most occupied binding site observed is a C residue four nucleotides upstream of the UU internal loop bound by 1 (54%; highlighted in red in FIG. 4). Two other reactions sites were observed: (i) a G residue in the GG internal loop that binds 1 (14%); and (ii) a U residue 13 nucleotides upstream of the UU internal loop that is part of the Drosha processing site (24%). To support our cellular mapping experiments, we modeled 2 bound to pri-miR-96 (FIG. 4B). Indeed, the distance between 2's cross-linking module and the most reacted nucleotides match precisely.

The subject of assay [5] is pri-miR-96. The conditions noted are these: in vitro, cited from earlier work; for pulldown of pri-miR-96 adducts with streptavidin beads: radioactively labeled pri-miR-96 RNA.
Assay [6] relates to pri-miR-96. The conditions noted are these: in cells, cited from earlier work.

Regarding `CCCN(CC(=O)N(CC(=O)N(CCNC(=O)CCCC[C@H]1SC[C@H]2NC(=O)N[C@H]21)CC(N)=O)Cc1cn(CCCNC(=O)CCCOc2c(C(C)(C)C)cc(-c3nc4cc(N5CCN(C)CC5)ccc4[nH]3)cc2C(C)(C)C)nn1)C(=O)CN(CCNC(=O)CCCc1ccc(N(CCCl)CCCl)cc1)C(=O)CCCOc1cccc(-c2nc3ccc(-c4nc5cc(N6CCN(C)CC6)ccc5[nH]4)cc3[nH]2)c1` [compound 2], in assay [1], the “increase in pri-miR-96 abundance” value is “ca. 1.5 fold” and the “mature miR-96 levels” value is recorded as “reduced to a similar extent as the parent compound 1”. Also, in the assay on FOXO1 protein, the FOXO1 protein expression entry was “enhanced the expression of FOXO1 protein”. The “effect on all 15 miRNAs predicted to target the FOXO1 3' UTR” value in assay [2] is given as “Only miR-96 was inhibited significantly”. The “selectivity profiling on 373 miRNAs (volcano plot)” value in [3] is on record as “miR-96 was the most affected”. In addition, in the assay with MDA-MB-231 TNBC cells, the “Caspase activity indicative of apoptosis” value was “increased Caspase activity”. The “Caspase activity indicative of apoptosis” value with MCF-10A cells is recorded as “neither 1 nor 2 had any effect”. Also, in the assay with pri-miR-96 [4], the “sequences terminating at reaction site: C residue four nucleotides upstream of the UU internal loop” value turned out to be 54%, the “sequences terminating at reaction site: G residue in the GG internal loop” value worked out at 14% and the “sequences terminating at reaction site: U residue 13 nucleotides upstream of the UU internal loop (Drosha processing site)” value is recorded as 24%. Also, the “pulldown of pri-miR-96 adducts with streptavidin beads” value in the assay on pri-miR-96 [5] was “Specific engagement”. The “enrichment of pri-miRNA-96 in the pulled down fraction” value in the assay with pri-miR-96 [6] (compared to sample prior to incubation with streptavidin beads, RT-qPCR) is recorded as 5 fold.

Take `CCCN(CC(=O)N(CCC)CC(=O)N(CC(N)=O)Cc1cn(CCCNC(=O)CCCOc2c(C(C)(C)C)cc(-c3nc4cc(N5CCN(C)CC5)ccc4[nH]3)cc2C(C)(C)C)nn1)C(=O)CCCOc1cccc(-c2nc3ccc(-c4nc5cc(N6CCN(C)CC6)ccc5[nH]4)cc3[nH]2)c1` [compound 1, Targaprimir-96]: in assay [1], the “increase in pri-miR-96 abundance” value is reported as “ca. 1.5 fold” and the “mature miR-96 levels” value is on record as “reduced”. Moreover, in the assay on FOXO1 protein, the FOXO1 protein expression entry was “enhanced the expression of FOXO1 protein”. Also, the “effect on all 15 miRNAs predicted to target the FOXO1 3' UTR” value in assay [2] is reported as “Only miR-96 was inhibited significantly”. In the assay with MDA-MB-231 TNBC cells, the “Caspase activity indicative of apoptosis” value is recorded as “increased Caspase activity”. Further, the “Caspase activity indicative of apoptosis” value with MCF-10A cells is “neither 1 nor 2 had any effect”. Also, the “competition of pri-miR-96 pulldown by 2 (C-Chem-CLIP)” value with pri-miR-96 [5] (constant 2 (1000 nM), increasing amounts of 1) is on record as 1-dependent decrease in the amount of RNA pulled down by 2. In the assay on pri-miR-96 [6] (increasing concentration of 1), the “competition of pri-miR-96 pulldown (cellular C-Chem-CLIP)” value is on record as “decreased as a function of the concentration of 1”.

With `C#CCN(CC(=O)N(CCNC(=O)CCCC[C@H]1SC[C@H]2NC(=O)N[C@H]21)CC(N)=O)C(=O)CN(CCC)C(=O)CN(CCNC(=O)CCCc1ccc(N(CCCl)CCCl)cc1)C(C)=O` [compound 3] (Ac-[N(2-Aminoethyl)Gly](Chlorambucil)[NPrGly][Gly(N-propargyl)][N(2-Aminoethyl)Gly](Biotinyl(3aR,4R,6aS))-NH2), the “mature miR-96 levels” value in [1] was “No effect”. Further, the “Caspase activity indicative of apoptosis” value in the assay with MDA-MB-231 TNBC cells was “no effect”. For the same compound, the “pulldown of pri-miR-96 adducts with streptavidin beads” value in the assay with pri-miR-96 [5] is “no pulldown”.
